# Molecular target: T1, Nav 1.7 (Homo sapiens, UniProt Q15858)
# T1 construct: expressed in transfected cells
# Test: Whole-cell voltage clamp electrophysiology, automated patch clamp (marker c in Table of Examples)
# Assay type: cell-based
# Settings: marker c = Automated patch clamp data; read-out: Nav 1.7 activity
# Summary of the method: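 Human NaV1.7 currents were recorded by whole-cell automated patch clamp, on IonWorks Quattro or another automated platform, typically in perforated-patch configuration. The stimulus protocol was designed to probe block mainly of the inactivated state, with a typical sweep stepping from about −65 mV holding to −10 mV, then −100 mV.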
# T1 sequence (Q15858 whole entry): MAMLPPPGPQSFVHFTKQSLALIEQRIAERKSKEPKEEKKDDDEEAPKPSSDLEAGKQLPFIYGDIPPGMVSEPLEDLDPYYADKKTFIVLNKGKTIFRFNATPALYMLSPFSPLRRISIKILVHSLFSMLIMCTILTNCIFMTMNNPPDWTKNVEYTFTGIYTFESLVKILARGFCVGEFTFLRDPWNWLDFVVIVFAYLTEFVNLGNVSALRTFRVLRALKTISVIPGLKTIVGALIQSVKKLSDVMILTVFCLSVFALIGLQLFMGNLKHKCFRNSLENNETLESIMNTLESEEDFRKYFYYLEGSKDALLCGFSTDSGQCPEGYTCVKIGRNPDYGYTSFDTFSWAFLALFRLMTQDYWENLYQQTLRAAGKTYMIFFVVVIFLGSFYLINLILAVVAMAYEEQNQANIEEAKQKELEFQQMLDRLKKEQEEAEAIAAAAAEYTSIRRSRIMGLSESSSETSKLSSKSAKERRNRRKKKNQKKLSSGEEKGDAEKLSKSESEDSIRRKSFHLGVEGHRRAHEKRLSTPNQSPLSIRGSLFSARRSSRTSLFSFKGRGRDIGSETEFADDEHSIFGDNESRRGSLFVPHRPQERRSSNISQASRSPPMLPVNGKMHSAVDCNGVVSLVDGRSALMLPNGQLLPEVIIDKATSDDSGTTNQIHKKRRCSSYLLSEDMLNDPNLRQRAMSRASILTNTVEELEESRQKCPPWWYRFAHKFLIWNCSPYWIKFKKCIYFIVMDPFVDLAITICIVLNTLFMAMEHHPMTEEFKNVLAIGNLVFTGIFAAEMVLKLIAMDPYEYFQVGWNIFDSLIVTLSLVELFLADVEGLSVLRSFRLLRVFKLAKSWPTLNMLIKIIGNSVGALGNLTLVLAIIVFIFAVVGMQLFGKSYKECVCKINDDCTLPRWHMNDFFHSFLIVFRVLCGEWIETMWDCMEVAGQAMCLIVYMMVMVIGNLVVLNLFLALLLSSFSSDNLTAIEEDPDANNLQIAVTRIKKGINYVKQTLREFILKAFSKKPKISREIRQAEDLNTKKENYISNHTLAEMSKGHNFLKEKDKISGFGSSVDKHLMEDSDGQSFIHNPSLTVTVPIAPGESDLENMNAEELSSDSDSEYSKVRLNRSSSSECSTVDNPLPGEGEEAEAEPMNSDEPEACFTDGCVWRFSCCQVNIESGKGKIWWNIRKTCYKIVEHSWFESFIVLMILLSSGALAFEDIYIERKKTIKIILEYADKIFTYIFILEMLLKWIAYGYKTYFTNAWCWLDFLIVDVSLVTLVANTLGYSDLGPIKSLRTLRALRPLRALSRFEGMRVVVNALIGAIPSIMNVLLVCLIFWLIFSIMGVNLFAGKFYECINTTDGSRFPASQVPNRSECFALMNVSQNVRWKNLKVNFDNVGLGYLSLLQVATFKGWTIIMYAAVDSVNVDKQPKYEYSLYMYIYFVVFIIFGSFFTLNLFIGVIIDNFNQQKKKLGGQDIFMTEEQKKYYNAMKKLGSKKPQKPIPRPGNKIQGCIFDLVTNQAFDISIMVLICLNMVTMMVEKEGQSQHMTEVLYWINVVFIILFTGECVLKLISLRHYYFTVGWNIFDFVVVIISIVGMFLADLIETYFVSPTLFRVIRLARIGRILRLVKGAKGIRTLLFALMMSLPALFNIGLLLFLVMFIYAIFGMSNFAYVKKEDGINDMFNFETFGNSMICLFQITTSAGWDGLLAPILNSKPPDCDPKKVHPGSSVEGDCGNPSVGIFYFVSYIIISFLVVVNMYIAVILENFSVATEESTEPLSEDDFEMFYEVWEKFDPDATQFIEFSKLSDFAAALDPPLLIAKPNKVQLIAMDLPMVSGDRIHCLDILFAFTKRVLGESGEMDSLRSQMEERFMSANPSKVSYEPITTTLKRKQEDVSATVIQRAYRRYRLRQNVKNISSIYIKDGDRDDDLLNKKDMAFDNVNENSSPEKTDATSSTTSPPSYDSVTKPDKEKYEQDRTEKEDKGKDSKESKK
row,IC50 [µM],SMILES
1,2.53,"CN(c1ccccc1)c1nc(N)nc(-c2noc(-c3n[nH]cc3Br)n2)n1 [Example 251, 6-[5-(4-bromo-1H-pyrazol-3-yl)-1,2,4-oxadiazol-3-yl]-2-N-methyl-2-N-phenyl-1,3,5-triazine-2,4-diamine]"
2,9.21,"CN(c1ccccc1)c1nc(N)nc(-c2noc(-c3ccc(OCC#N)nc3)n2)n1 [Example 330, 2-{[5-(3-{4-Amino-6-[methyl(phenyl)amino]-1,3,5-triazin-2-yl}-1,2,4-oxadiazol-5-yl)pyridin-2-yl]oxy}acetonitrile]"
3,0.017,"CC(OCc1ccc(-c2nc(-c3nc(N)nc(N(C)c4ccccc4)n3)no2)cn1)C(F)(F)F (centres unmarked) [Example 206, 2-N-methyl-2-N-phenyl-6-[5-(6-{[(1,1,1-trifluoropropan-2-yl)oxy]methyl}pyridin-3-yl)-1,2,4-oxadiazol-3-yl]-1,3,5-triazine-2,4-diamine]"

# The next lines start with the molecule.
row,SMILES,IC50 [µM]
1,"CC(=O)N1CC(c2nc(-c3nc(N)nc(N(C)c4ccccc4)n3)no2)C1 [Example 384, 1-[3-(3-{4-Amino-6-[methyl(phenyl)amino]-1,3,5-triazin-2-yl}-1,2,4-oxadiazol-5-yl)azetidin-1-yl]ethan-1-one]",> 8.59
2,"CN(c1ccccc1)c1nc(N)nc(-c2noc(-c3ccc(SCCC(F)(F)F)nc3)n2)n1 [Example 453, 2-N-methyl-2-N-phenyl-6-{5-{6-[(3,3,3-trifluoropropyl)sulfanyl]pyridin-3-yl}-1,2,4-oxadiazol-3-yl)-1,3,5-triazine-2,4-diamine]",0.121
3,"CN(c1ccccc1)c1nc(N)nc(-c2noc([C@H]3CCCN3CCC(F)(F)F)n2)n1 [Example 442, 2-N-methyl-2-N-phenyl-6-{5-[(2R)-1-(3,3,3-trifluoropropyl)pyrrolidin-2-yl]-1,2,4-oxadiazol-3-yl}-1,3,5-triazine-2,4-diamine]",7.18
4,"CN(c1ccccc1)c1nc(N)nc(-c2noc(-c3ncccc3OC3CCC3)n2)n1 [Example 491, 6-[5-(3-cyclobutoxypyridin-2-yl)-1,2,4-oxadiazol-3-yl]-2-N-methyl-2-N-phenyl-1,3,5-triazine-2,4-diamine]",1.04
5,"CN(c1ccccc1)c1nc(N)nc(-c2noc(-c3ccc(C(=O)NC4CCC4)nc3)n2)n1 [Example 286, 5-(3-{4-amino-6-[methyl(phenyl)amino]-1,3,5-triazin-2-yl}-1,2,4-oxadiazol-5-yl)-N-cyclobutylpyridine-2-carboxamide]",1.07

# Same assay, conditions: marker c: Automated patch clamp data; read-out: Nav 1.7 activity
row,IC50 [µM],SMILES
1,7.69,"COCC1CCN(c2nc(-c3nc(N)nc(N(C)c4ccccc4)n3)no2)CC1 [Example 165, 6-{5-[4-(methoxymethyl)piperidin-1-yl]-1,2,4-oxadiazol-3-yl}-2-N-methyl-2-N-phenyl-1,3,5-triazine-2,4-diamine]"
2,0.106,"Nc1nc(Nc2ccccc2F)nc(-c2noc(-c3ccc(OCC4CC4)nc3)n2)n1 [Example 138, 6-{5-[6-(cyclopropylmethoxy)pyridin-3-yl]-1,2,4-oxadiazol-3-yl}-2-N-(2-fluorophenyl)-1,3,5-thazine-2,4-diamine]"

# More lines, now with the values behind:
row,SMILES,IC50 [µM]
1,"CN(c1ccccc1)c1nc(N)nc(-c2noc(N3CCC(CS(=O)(=O)c4ccccc4)CC3)n2)n1 [Example 179, 6-(5-{4-[(benzenesulfonyl)methyl]piperidin-1-yl}-1,2,4-oxadiazol-3-yl)-2-N-methyl-2-N-phenyl-1,3,5-triazine-2,4-diamine]",0.81
2,"Nc1nc(-c2noc(-c3ccco3)n2)nc(N(CCO)c2ccccc2)n1 [Example 70, 2-{[4-Amino-6-(5-furan-2-yl-[1,2,4]oxadiazol-3-yl)-[1,3,5]triazin-2-yl]-phenyl-amino}-ethanol]",1.02
3,"CN(c1ccccc1)c1nc(N)nc(-c2noc(-c3cccc(F)c3)n2)n1 [Example 123, 6-[5-(3-Fluoro-phenyl)-[1,2,4]oxadiazol-3-yl]-N-methyl-N-phenyl-[1,3,5]triazine-2,4-diamine]",0.929
4,"Cc1ccc(-c2nc(-c3nc(N)nc(N(C)c4cccc(Cl)c4)n3)no2)o1 [Example 102, N-(3-Chloro-phenyl)-N-methyl-6-[5-(5-methyl-furan-2-yl)-[1,2,4]oxadiazol-3-yl]-[1,3,5]triazine-2,4-diamine]",0.489

# — patent publication US8895733B2 (Novartis AG, priority 2010, dated 2014)
